Test results from paper PMC8286840, “Identifying SARS-CoV-2 antiviral compounds by screening for small molecule inhibitors of Nsp3 papain-like protease” (Biochemical Journal, 2021).
Counter-ions that a name gives are not always drawn. Like-named read-outs stand apart in the source and are kept apart here. Where a SMILES comes first, the peptide text is derived from it. [ ]: non-standard residue; d: D form. pGlu = O=C1CC[C@@H](C(=O)O)N1; Thz = O=C(O)[C@@H]1CSCN1

Key:
[1] = target: T1, SARS-CoV-2 PLpro (nsp3 1564–1878) (Severe acute respiratory syndrome coronavirus 2, UniProt P0DTD1); experiment: biochemical; parameters: FRET-quenched peptide (Pro3) cleavage by PLpro, 10 min pre-incubation, slope over 20 min, normalised to no-compound control; conditions: read-out: % of control remaining
[2] = target: T1, SARS-CoV-2 PLpro (nsp3 1564–1878); experiment: biochemical; parameters: FRET-quenched peptide (Pro3) cleavage by PLpro, 10 min pre-incubation, slope over 20 min, normalised to no-compound control; conditions: read-out: % of control remaining; remark: listed apart in the source

In the case of `CCCCC1C(=O)N(c2ccccc2)N(c2ccccc2)C1=O` [Phenylbutazone], the remaining activity at 3.75 µM ([1]; Well no.=1303, high concentration screen) is reported as 99.3%, the remaining activity at 3.75 µM ([1]; Well no.=2105, high concentration screen) is reported as 101% and the remaining activity at 1.25 µM ([2]; Well no.=1303, low concentration screen) is reported as 102%. For the same compound, the remaining activity at 1.25 µM ([2]; Well no.=2105, low concentration screen) was 101%.
For `CNC[C@H](O)c1cccc(O)c1` [Phenylephrine hydrochloride], the remaining activity at 3.75 µM ([1]; Well no.=958, high concentration screen) was 103% and the remaining activity at 1.25 µM ([2]; Well no.=958, low concentration screen) was 101%.
With `C[C@H](N)[C@H](O)c1ccccc1` [Phenylpropanolamine] the remaining activity at 3.75 µM ([1]; Well no.=2292, high concentration screen) was 97.2% and the remaining activity at 1.25 µM ([2]; Well no.=2292, low concentration screen) was 96.7%.
Work on `O=C1N=C(O)NC1(c1ccccc1)c1ccccc1` [Phenytoin sodium] yielded a remaining activity at 3.75 µM ([1]; Well no.=403, high concentration screen) of 104% and a remaining activity at 1.25 µM ([2]; Well no.=403, low concentration screen) of 104%.
`O=C1NC(=O)C(c2ccccc2)(c2ccccc2)N1` [Phenytoin] was tested, and the remaining activity at 3.75 µM ([1]; Well no.=1643, high concentration screen) was 100% and the remaining activity at 1.25 µM ([2]; Well no.=1643, low concentration screen) was 99.6%.
Compound `CCn1c2ccccc2c2cc(CNC)ccc21` [PhiKan 083] has a remaining activity at 3.75 µM ([1]; Well no.=6830, high concentration screen) of 93.9% and a remaining activity at 1.25 µM ([2]; Well no.=6830, low concentration screen) of 93.5%.
`O=C(CCc1ccc(O)cc1)c1c(O)cc(O)cc1O` [Phloretin] showed a remaining activity at 3.75 µM ([1]; Well no.=1397, high concentration screen) of 102%, a remaining activity at 3.75 µM ([1]; Well no.=3821, high concentration screen) of 94.8% and a remaining activity at 1.25 µM ([2]; Well no.=1397, low concentration screen) of 102%. The remaining activity at 1.25 µM ([2]; Well no.=3821, low concentration screen) was 95.3%.
`O=C(CCc1ccc(O)cc1)c1c(O)cc(O)cc1O[C@@H]1O[C@H](CO)[C@@H](O)[C@H](O)[C@H]1O` [Phlorizine] was tested, and the remaining activity at 3.75 µM ([1]; Well no.=3452, high concentration screen) was 97.9% and the remaining activity at 1.25 µM ([2]; Well no.=3452, low concentration screen) was 94.2%.
Work on `CCCC(=O)O[C@@H]1[C@@H](C)[C@@]2(O)[C@@H](C=C(CO)C[C@]3(O)C(=O)C(C)=C[C@@H]23)[C@@H]2C(C)(C)[C@]12OC(=O)CCC` [Phorbol 12,13-dibutyrate] yielded a remaining activity at 3.75 µM ([1]; Well no.=3487, high concentration screen) of 100% and a remaining activity at 1.25 µM ([2]; Well no.=3487, low concentration screen) of 97.7%.
`CCCCCCCCCCCCCC(=O)O[C@@H]1[C@@H](C)[C@@]2(O)[C@@H](C=C(CO)C[C@]3(O)C(=O)C(C)=C[C@@H]23)[C@@H]2C(C)(C)[C@]12OC(C)=O` [Phorbol 12-myristate 13-acetate] gave a remaining activity at 3.75 µM ([1]; Well no.=1493, high concentration screen) of 97.5%, a remaining activity at 3.75 µM ([1]; Well no.=3078, high concentration screen) of 105% and a remaining activity at 1.25 µM ([2]; Well no.=1493, low concentration screen) of 101%. The remaining activity at 1.25 µM ([2]; Well no.=3078, low concentration screen) was 102%.
With `C[C@@H]1O[C@@H]1P(=O)(O)O` [Phosphomycin disodium] the remaining activity at 3.75 µM ([1]; Well no.=1148, high concentration screen) was 93.1% and the remaining activity at 1.25 µM ([2]; Well no.=1148, low concentration screen) was 96.5%.
In the case of `O=C(O)CP(=O)(O)O` [Phosphonoacetic acid], the remaining activity at 3.75 µM ([1]; Well no.=1299, high concentration screen) is reported as 103% and the remaining activity at 1.25 µM ([2]; Well no.=1299, low concentration screen) is reported as 101%.
For `CC(C)C[C@H](NP(=O)(O)O[C@@H]1O[C@@H](C)[C@H](O)[C@@H](O)[C@H]1O)C(=O)N[C@@H](Cc1c[nH]c2ccccc12)C(=O)O` [Phosphoramidon disodium], the remaining activity at 3.75 µM ([1]; Well no.=1398, high concentration screen) was 100% and the remaining activity at 1.25 µM ([2]; Well no.=1398, low concentration screen) was 99.4%.
`NC(=O)c1ccccc1C(=O)N[C@@H](CCC(=O)O)C(=O)O` [Phthalamoyl-L-glutamic acid trisodium] showed a remaining activity at 3.75 µM ([1]; Well no.=1409, high concentration screen) of 101% and a remaining activity at 1.25 µM ([2]; Well no.=1409, low concentration screen) of 99.3%.
Work on `CC(=O)NS(=O)(=O)c1ccc(NC(=O)c2ccccc2C(=O)O)cc1` [Phthalylsulfacetamide] yielded a remaining activity at 3.75 µM ([1]; Well no.=7356, high concentration screen) of 100% and a remaining activity at 1.25 µM ([2]; Well no.=7356, low concentration screen) of 105%.
With `O=C(O)c1ccccc1C(=O)Nc1ccc(S(=O)(=O)Nc2nccs2)cc1` [Phthalylsulfathiazole] the remaining activity at 3.75 µM ([1]; Well no.=7314, high concentration screen) was 95.3% and the remaining activity at 1.25 µM ([2]; Well no.=7314, low concentration screen) was 97.8%.
Compound `CCCCCCCCCCCCCC[C@@H](O)[C@@H](O)[C@@H](N)CO` [Phytosphingosine] has a remaining activity at 3.75 µM ([1]; Well no.=3082, high concentration screen) of 103% and a remaining activity at 1.25 µM ([2]; Well no.=3082, low concentration screen) of 102%.
Compound `CCCCN1CCC(CNC(=O)c2c3n(c4ccccc24)CCCO3)CC1` [Piboserod] has a remaining activity at 3.75 µM ([1]; Well no.=7965, high concentration screen) of 93.6% and a remaining activity at 1.25 µM ([2]; Well no.=7965, low concentration screen) of 93.1%.
`Oc1cc(O)cc(/C=C/c2ccc(O)c(O)c2)c1` [Piceatannol] showed a remaining activity at 3.75 µM ([1]; Well no.=948, high concentration screen) of 92.7%, a remaining activity at 3.75 µM ([1]; Well no.=3084, high concentration screen) of 98.8% and a remaining activity at 3.75 µM ([1]; Well no.=3939, high concentration screen) of 102%. The remaining activity at 1.25 µM ([2]; Well no.=948, low concentration screen) was 98.3%, the remaining activity at 1.25 µM ([2]; Well no.=3084, low concentration screen) was 107% and the remaining activity at 1.25 µM ([2]; Well no.=3939, low concentration screen) was 105%.
For `COc1ccc(C(=O)NCc2cccnc2)cc1C(=O)NCc1cccnc1` [Picotamide], the remaining activity at 3.75 µM ([1]; Well no.=1351, high concentration screen) was 102%, the remaining activity at 3.75 µM ([1]; Well no.=2202, high concentration screen) was 90.3% and the remaining activity at 1.25 µM ([2]; Well no.=1351, low concentration screen) was 102%. It also gave a remaining activity at 1.25 µM ([2]; Well no.=2202, low concentration screen) of 88.9%.
`COc1cc([C@@H]2c3cc4c(cc3[C@H](O)[C@H]3COC(=O)[C@@H]23)OCO4)cc(OC)c1OC` [Picropodophyllin] was tested, and the remaining activity at 3.75 µM ([1]; Well no.=3341, high concentration screen) was 98.4% and the remaining activity at 1.25 µM ([2]; Well no.=3341, low concentration screen) was 95.7%.
With `C=C(C)[C@@H]1[C@H]2OC(=O)[C@@H]1[C@]1(O)C[C@H]3O[C@]34C(=O)O[C@H]2[C@]14C` [Picrotoxinin] the remaining activity at 3.75 µM [1] was 101% and the remaining activity at 1.25 µM [2] was 101%.
Compound `O=C1CC[C@@H](C(=O)N2CSC[C@H]2C(=O)O)N1` [Pidotimod] ([pGlu]-[Thz]-OH) has a remaining activity at 3.75 µM ([1]; Well no.=4933, high concentration screen) of 105%, a remaining activity at 3.75 µM ([1]; Well no.=7508, high concentration screen) of 97.7% and a remaining activity at 1.25 µM ([2]; Well no.=7508, low concentration screen) of 101%.
With `CC[C@@H]1C(=O)OC[C@@H]1Cc1cncn1C` [Pilocarpine (Hydrochloride)] the remaining activity at 3.75 µM ([1]; Well no.=7627, high concentration screen) was 96.7% and the remaining activity at 1.25 µM ([2]; Well no.=7627, low concentration screen) was 99.7%.
With `CC[C@@H]1C(=O)OC[C@@H]1Cc1cncn1C` [Pilocarpine nitrate] the remaining activity at 3.75 µM ([1]; Well no.=1150, high concentration screen) was 97% and the remaining activity at 1.25 µM ([2]; Well no.=1150, low concentration screen) was 96.8%.
In the case of `CC[C@@H]1C(=O)OC[C@@H]1Cc1cncn1C` [Pilocarpine.HCl], the remaining activity at 3.75 µM ([1]; Well no.=1793, high concentration screen) is reported as 98.6%, the remaining activity at 3.75 µM ([1]; Well no.=3729, high concentration screen) is reported as 105% and the remaining activity at 1.25 µM ([2]; Well no.=1793, low concentration screen) is reported as 98.6%. It also gave a remaining activity at 1.25 µM ([2]; Well no.=3729, low concentration screen) of 101%.
`C[C@@H]1C/C=C/C=C/C=C/C=C/[C@H](O[C@@H]2O[C@H](C)[C@@H](O)[C@H](N)[C@@H]2O)C[C@@H]2O[C@](O)(C[C@@H](O)C[C@H]3O[C@@H]3/C=C/C(=O)O1)C[C@H](O)[C@H]2C(=O)O` [Pimaricin] gave a remaining activity at 3.75 µM ([1]; Well no.=3703, high concentration screen) of 102% and a remaining activity at 1.25 µM ([2]; Well no.=3703, low concentration screen) of 96.5%.
`CC(C)COc1ccc(CNC(=O)N(Cc2ccc(F)cc2)C2CCN(C)CC2)cc1` [Pimavanserin tartrate] showed a remaining activity at 3.75 µM ([1]; Well no.=6989, high concentration screen) of 102% and a remaining activity at 1.25 µM ([2]; Well no.=6989, low concentration screen) of 103%.
`CC(C)COc1ccc(CNC(=O)N(Cc2ccc(F)cc2)C2CCN(C)CC2)cc1` [Pimavanserin] was tested, and the remaining activity at 3.75 µM ([1]; Well no.=6521, high concentration screen) was 95.9% and the remaining activity at 1.25 µM ([2]; Well no.=6521, low concentration screen) was 95%.
In the case of `CC[C@@H]1/C=C(\C)C[C@H](C)C[C@H](OC)[C@H]2O[C@@](O)(C(=O)C(=O)N3CCCC[C@H]3C(=O)O[C@H](/C(C)=C/[C@@H]3CC[C@H](Cl)[C@H](OC)C3)[C@H](C)[C@@H](O)CC1=O)[C@H](C)C[C@@H]2OC` [Pimecrolimus], the remaining activity at 3.75 µM ([1]; Well no.=8178, high concentration screen) is reported as 91.3% and the remaining activity at 1.25 µM ([2]; Well no.=8178, low concentration screen) is reported as 93.5%.
